The values that follow are results of earlier work, collected in US20050090518A1 (Nastech Pharmaceutical Company Inc., priority 2003, published 2005).

Each structure is given as a SMILES string.

The conditions of this data set: intranasal administration.

In the case of `CN1CCc2cccc3c2[C@H]1Cc1ccc(O)c(O)c1-3` [Apomorphine], the “abolition of "off state" events” value is on record as 95%, the duration of efficacy result is reported as “less than one” and the onset of action is 10 min.
